Source: ChEMBL document CHEMBL2021812, “Aryltriflates as a Neglected Moiety in Medicinal Chemistry: A Case Study from a Lead Optimization of CXCL8 Inhibitors” (ACS Med Chem Lett, 2011)

Tests used:
Hepatocyte [1] = assay: Drug metabolism in human hepatocytes assessed as (R)-2-(4-(trifluoromethylsulfonyloxy)phenyl)propanoic acid level at 10 uM after 30 mins; format: ADME, cell-based; conditions: 0.5 h
Hepatocyte [2] = assay: Drug metabolism in rat hepatocytes assessed as (R)-2-(4-(trifluoromethylsulfonyloxy)phenyl)propanoic acid level at 10 uM after 120 mins; format: ADME, cell-based; conditions: 2 h
[3] = Chemical stability of the compound assessed as compound remaining at pH 9 after 2 hrs; format: physicochemical; conditions: buffer, read-out: Stability
Hepatocyte [4] = assay: Drug metabolism in rat hepatocytes assessed as (R)-2-(4-(trifluoromethylsulfonyloxy)phenyl)propanoic acid level at 10 uM after 60 mins; format: ADME, cell-based; conditions: 1 h
CYP2D6 = CYP2D6 (Homo sapiens, UniProt P10635); assay: Inhibition of CYP2D6 using AMMC as substrate at 10 uM; format: ADME; conditions: probe AMMC
CYP2D6, sequence (P10635 whole entry): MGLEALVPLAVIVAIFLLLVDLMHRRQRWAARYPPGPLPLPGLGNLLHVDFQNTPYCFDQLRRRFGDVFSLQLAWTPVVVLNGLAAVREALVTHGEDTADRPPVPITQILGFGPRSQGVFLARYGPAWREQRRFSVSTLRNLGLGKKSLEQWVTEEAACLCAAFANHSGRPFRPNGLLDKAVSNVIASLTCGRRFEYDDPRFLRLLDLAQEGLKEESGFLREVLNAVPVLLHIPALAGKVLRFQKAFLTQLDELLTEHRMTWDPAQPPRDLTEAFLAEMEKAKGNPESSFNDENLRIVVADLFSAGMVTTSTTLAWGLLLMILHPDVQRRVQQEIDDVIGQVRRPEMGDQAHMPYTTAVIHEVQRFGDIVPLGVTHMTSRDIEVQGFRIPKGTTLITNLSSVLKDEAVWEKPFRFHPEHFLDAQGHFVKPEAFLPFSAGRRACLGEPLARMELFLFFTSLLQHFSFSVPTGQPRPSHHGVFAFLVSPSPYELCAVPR

Hepatocyte [5] = assay: Drug metabolism in rat hepatocytes assessed as (R)-2-(4-(trifluoromethylsulfonyloxy)phenyl)propanoic acid level at 10 uM after 15 mins; format: ADME, cell-based; conditions: 0.25 h
Hepatocyte [6] = assay: Drug metabolism in rat hepatocytes assessed as (S)-2-(4-(trifluoromethylsulfonyloxy)phenyl)propanoic acid level at 10 uM after 60 mins; format: ADME, cell-based; conditions: 1 h
Hepatocyte [7] = assay: Drug metabolism in human hepatocytes assessed as (S)-2-(4-(trifluoromethylsulfonyloxy)phenyl)propanoic acid level at 10 uM after 60 mins; format: ADME, cell-based; conditions: 1 h
[8] = Elimination half life in Sprague-Dawley rat at 14 mg/kg, iv; format: ADME, organism-based; design: dose 14 mg/kg, route intravenous; conditions: in vivo, read-out: beta t1/2 (converted)
CYP3A4 = CYP3A4 (Homo sapiens, UniProt P08684); assay: Inhibition of CYP3A4 using BFC as substrate at 10 uM; format: ADME; conditions: probe BFC
CYP3A4, sequence (P08684 whole entry): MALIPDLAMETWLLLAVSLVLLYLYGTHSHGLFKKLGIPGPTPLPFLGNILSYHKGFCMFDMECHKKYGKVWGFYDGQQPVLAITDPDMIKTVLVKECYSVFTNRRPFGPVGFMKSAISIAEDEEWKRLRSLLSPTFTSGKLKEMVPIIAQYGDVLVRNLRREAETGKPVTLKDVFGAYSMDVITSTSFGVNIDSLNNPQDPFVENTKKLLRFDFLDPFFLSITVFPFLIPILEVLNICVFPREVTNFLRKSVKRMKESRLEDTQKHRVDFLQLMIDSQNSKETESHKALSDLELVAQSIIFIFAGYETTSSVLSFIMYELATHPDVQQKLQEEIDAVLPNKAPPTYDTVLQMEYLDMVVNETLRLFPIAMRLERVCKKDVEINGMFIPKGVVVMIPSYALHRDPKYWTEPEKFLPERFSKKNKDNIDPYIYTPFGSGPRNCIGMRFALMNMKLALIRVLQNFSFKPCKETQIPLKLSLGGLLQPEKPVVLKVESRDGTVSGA

[9] = Metabolic stability in rat plasma assessed as compound remaining at 1 uM after 1 hr; format: ADME, cell-free; conditions: read-out: Stability
[10] = Oral bioavailability in Sprague-Dawley rat at 14 mg/kg; format: ADME, organism-based; conditions: in vivo
[11] = target: Voltage-gated inwardly rectifying potassium channel KCNH2 (Homo sapiens, UniProt Q12809); assay: Displacement of [3H]astemizole from human ERG expressed in HEK293 cells at 10 uM for 60 mins by liquid scintillation counting; format: cell-based; conditions: hek293, 1 h
Voltage-gated inwardly rectifying potassium channel KCNH2, sequence (Q12809 whole entry): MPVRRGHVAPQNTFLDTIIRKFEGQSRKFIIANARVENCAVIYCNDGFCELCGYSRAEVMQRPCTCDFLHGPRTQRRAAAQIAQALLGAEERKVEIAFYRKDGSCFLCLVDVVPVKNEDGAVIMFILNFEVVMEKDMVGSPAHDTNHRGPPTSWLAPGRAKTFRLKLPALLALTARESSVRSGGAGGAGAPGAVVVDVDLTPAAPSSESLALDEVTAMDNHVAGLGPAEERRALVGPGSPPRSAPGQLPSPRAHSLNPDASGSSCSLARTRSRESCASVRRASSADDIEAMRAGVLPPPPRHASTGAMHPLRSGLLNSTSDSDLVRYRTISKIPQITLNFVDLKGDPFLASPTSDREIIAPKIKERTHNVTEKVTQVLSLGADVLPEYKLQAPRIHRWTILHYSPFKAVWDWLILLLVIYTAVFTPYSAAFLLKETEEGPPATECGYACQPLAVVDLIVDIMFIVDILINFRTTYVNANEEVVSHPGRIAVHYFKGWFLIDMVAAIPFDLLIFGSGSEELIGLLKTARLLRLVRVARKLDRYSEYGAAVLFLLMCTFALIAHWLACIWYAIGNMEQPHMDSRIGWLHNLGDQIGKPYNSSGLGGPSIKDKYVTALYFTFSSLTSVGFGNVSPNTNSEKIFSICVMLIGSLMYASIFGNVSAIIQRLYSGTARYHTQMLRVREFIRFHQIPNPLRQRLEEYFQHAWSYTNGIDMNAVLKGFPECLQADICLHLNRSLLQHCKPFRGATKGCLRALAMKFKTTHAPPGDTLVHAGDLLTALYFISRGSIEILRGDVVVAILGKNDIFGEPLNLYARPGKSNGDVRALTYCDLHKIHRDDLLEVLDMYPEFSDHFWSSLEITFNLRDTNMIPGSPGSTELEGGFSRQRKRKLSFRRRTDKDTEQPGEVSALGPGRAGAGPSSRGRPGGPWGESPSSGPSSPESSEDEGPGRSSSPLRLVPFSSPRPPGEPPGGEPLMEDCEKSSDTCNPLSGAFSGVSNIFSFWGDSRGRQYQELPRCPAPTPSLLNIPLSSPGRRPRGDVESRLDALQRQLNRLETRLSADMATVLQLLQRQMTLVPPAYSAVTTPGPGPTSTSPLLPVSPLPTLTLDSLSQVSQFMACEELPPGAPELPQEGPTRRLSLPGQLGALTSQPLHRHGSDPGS

Hepatocyte [12] = assay: Drug metabolism in rat hepatocytes assessed as (S)-2-(4-(trifluoromethylsulfonyloxy)phenyl)propanoic acid level at 10 uM after 120 mins; format: ADME, cell-based; conditions: 2 h
[13] = Dissociation constant, pKa of the compound; format: physicochemical
[14] = Chemical stability of the compound assessed as compound remaining at pH 3.5 after 2 hrs; format: physicochemical; conditions: buffer, read-out: Stability
[15] = Clearance in Sprague-Dawley rat at 14 mg/kg, iv; format: ADME, organism-based; design: dose 14 mg/kg, route intravenous; conditions: in vivo
Hepatocyte [16] = assay: Drug metabolism in rat hepatocytes assessed as (R)-2-(4-(trifluoromethylsulfonyloxy)phenyl)propanoic acid level at 10 uM after 30 mins; format: ADME, cell-based; conditions: 0.5 h
Hepatocyte [17] = assay: Drug metabolism in human hepatocytes assessed as (S)-2-(4-(trifluoromethylsulfonyloxy)phenyl)propanoic acid level at 10 uM after 15 mins; format: ADME, cell-based; conditions: 0.25 h
CYP2C9 = CYP2C9 (Homo sapiens, UniProt P11712); assay: Inhibition of CYP2C9 using 7MFC as substrate at 10 uM; format: ADME; conditions: probe 7MFC
CYP2C9, sequence (P11712 whole entry): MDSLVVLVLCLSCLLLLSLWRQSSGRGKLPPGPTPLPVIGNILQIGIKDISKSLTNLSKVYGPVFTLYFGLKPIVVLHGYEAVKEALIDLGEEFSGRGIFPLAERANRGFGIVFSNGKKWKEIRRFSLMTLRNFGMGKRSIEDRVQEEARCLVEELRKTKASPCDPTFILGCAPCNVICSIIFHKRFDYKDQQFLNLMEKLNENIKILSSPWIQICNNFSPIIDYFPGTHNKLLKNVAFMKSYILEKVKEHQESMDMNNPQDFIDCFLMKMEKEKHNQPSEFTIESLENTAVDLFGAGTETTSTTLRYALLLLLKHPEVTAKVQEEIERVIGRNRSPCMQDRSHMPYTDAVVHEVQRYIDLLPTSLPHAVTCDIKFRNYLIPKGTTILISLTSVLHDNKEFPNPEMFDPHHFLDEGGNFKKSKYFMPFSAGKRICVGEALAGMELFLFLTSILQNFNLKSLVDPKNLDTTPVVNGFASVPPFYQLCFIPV

CYP2C19 = CYP2C19 (Homo sapiens, UniProt P33261); assay: Inhibition of CYP2C19 using DBF as substrate at 10 uM; format: ADME; conditions: probe DBF
CYP2C19, sequence (P33261 whole entry): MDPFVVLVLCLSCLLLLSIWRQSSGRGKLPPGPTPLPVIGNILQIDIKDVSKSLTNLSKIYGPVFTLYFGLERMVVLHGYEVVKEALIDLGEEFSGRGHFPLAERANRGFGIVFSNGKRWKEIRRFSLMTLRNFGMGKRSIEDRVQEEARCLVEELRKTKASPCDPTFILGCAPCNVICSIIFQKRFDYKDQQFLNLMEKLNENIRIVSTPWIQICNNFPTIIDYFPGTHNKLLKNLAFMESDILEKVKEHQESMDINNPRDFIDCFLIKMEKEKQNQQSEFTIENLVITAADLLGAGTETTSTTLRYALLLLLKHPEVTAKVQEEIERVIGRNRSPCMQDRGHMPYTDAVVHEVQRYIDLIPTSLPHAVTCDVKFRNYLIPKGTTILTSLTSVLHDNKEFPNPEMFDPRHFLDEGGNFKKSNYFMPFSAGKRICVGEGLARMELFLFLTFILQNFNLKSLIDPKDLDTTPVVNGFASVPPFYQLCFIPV

Hepatocyte [18] = assay: Drug metabolism in human hepatocytes assessed as (S)-2-(4-(trifluoromethylsulfonyloxy)phenyl)propanoic acid level at 10 uM after 30 mins; format: ADME, cell-based; conditions: 0.5 h
[19] = target: T1, C-X-C chemokine receptor type 2 (Homo sapiens) (UniProt P25025); assay: Inhibition of CXCR2 in human polymorphonucleate cells assessed as inhibition of CXCL1-induced chemotaxis at 10^-8 M incubated for 15 mins prior to CXCL1-induction measured after 45 mins
T1 sequence (whole entry): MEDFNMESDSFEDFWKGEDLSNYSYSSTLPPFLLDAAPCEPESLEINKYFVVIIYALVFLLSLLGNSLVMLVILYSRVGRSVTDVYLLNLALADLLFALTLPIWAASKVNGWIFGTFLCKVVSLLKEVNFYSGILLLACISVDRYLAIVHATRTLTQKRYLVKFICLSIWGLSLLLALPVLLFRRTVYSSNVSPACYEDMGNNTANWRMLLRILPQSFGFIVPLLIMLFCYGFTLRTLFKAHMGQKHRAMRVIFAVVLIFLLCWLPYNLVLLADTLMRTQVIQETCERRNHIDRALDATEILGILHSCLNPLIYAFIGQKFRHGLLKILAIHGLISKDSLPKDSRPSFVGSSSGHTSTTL

Hepatocyte [20] = assay: Drug metabolism in human hepatocytes assessed as (S)-2-(4-(trifluoromethylsulfonyloxy)phenyl)propanoic acid level at 10 uM after 120 mins; format: ADME, cell-based; conditions: 2 h
Hepatocyte [21] = assay: Drug metabolism in rat hepatocytes assessed as (S)-2-(4-(trifluoromethylsulfonyloxy)phenyl)propanoic acid level at 10 uM after 30 mins; format: ADME, cell-based; conditions: 0.5 h
[22] = Metabolic stability in rat liver microsomes assessed as compound remaining at 1 uM preincubated for 10 mins measured after 30 mins; format: ADME, Microsome; conditions: read-out: Stability
Hepatocyte [23] = assay: Drug metabolism in rat hepatocytes assessed as (S)-2-(4-(trifluoromethylsulfonyloxy)phenyl)propanoic acid level at 10 uM after 90 mins; format: ADME, cell-based; conditions: 1.5 h
Hepatocyte [24] = assay: Drug metabolism in human hepatocytes assessed as (R)-2-(4-(trifluoromethylsulfonyloxy)phenyl)propanoic acid level at 10 uM after 120 mins; format: ADME, cell-based; conditions: 2 h
Hepatocyte [25] = assay: Drug metabolism in rat hepatocytes assessed as (S)-2-(4-(trifluoromethylsulfonyloxy)phenyl)propanoic acid level at 10 uM after 15 mins; format: ADME, cell-based; conditions: 0.25 h
Hepatocyte [26] = assay: Drug metabolism in rat hepatocytes assessed as (R)-2-(4-(trifluoromethylsulfonyloxy)phenyl)propanoic acid level at 10 uM after 90 mins; format: ADME, cell-based; conditions: 1.5 h
[27] = target: Interleukin-8 receptors, CXCR1/CXCR2 (Homo sapiens) (UniProt P25025+P25024); assay: Inhibition of CXCR1/2 in human polymorphonucleate cells assessed as inhibition of CXCL8-induced chemotaxis at 10^-8 M incubated for 15 mins prior to CXCL8-induction measured after 45 mins
Hepatocyte [28] = assay: Drug metabolism in human hepatocytes assessed as (R)-2-(4-(trifluoromethylsulfonyloxy)phenyl)propanoic acid level at 10 uM after 60 mins; format: ADME, cell-based; conditions: 1 h
Hepatocyte [29] = assay: Drug metabolism in human hepatocytes assessed as (R)-2-(4-(trifluoromethylsulfonyloxy)phenyl)propanoic acid level at 10 uM after 15 mins; format: ADME, cell-based; conditions: 0.25 h
Hepatocyte [30] = assay: Drug metabolism in human hepatocytes assessed as (R)-2-(4-(trifluoromethylsulfonyloxy)phenyl)propanoic acid level at 10 uM after 90 mins; format: ADME, cell-based; conditions: 1.5 h
CYP1A2 = target: T2, CYP1A2 (Homo sapiens, UniProt P05177); assay: Inhibition of CYP1A2 using CEC as substrate at 10 uM; format: ADME; conditions: probe CEC
T2 sequence (P05177 whole entry): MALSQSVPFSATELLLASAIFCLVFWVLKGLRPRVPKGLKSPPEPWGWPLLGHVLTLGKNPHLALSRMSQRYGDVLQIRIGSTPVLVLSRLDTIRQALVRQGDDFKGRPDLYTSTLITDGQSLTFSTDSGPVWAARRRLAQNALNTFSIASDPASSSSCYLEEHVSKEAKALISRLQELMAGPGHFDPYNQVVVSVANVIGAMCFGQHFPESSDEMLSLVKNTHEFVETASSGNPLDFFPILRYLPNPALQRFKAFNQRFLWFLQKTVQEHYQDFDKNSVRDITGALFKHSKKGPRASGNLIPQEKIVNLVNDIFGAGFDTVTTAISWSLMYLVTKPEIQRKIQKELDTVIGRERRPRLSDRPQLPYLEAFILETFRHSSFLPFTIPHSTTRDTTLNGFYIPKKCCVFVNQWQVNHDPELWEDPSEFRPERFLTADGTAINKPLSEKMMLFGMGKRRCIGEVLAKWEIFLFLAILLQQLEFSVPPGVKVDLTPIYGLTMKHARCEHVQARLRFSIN

Hepatocyte [31] = assay: Drug metabolism in human hepatocytes assessed as (S)-2-(4-(trifluoromethylsulfonyloxy)phenyl)propanoic acid level at 10 uM after 90 mins; format: ADME, cell-based; conditions: 1.5 h

Drug metabolism (Hepatocyte [1]): 3 ng/mL | Drug metabolism (Hepatocyte [2]): 4 ng/mL | remaining at 2 h [3]: 30% | Drug metabolism (Hepatocyte [4]): 3 ng/mL | inhibition at 10 µM (CYP2D6): < 5% | Drug metabolism (Hepatocyte [5]): 22 ng/mL | Drug metabolism (Hepatocyte [6]): 50 ng/mL | Drug metabolism (Hepatocyte [7]): 2 ng/mL | half-life [8]: 19 h | inhibition at 10 µM (CYP3A4): < 5% | remaining at 1 h, 1 µM [9]: 100% | bioavailability [10]: 100% | Drug metabolism (Hepatocyte [12]): 56 ng/mL | pKa [13]: 4.4 | remaining at 2 h [14]: > 99% | clearance [15]: 0.1 mL/min/kg | Drug metabolism (Hepatocyte [16]): 5 ng/mL | Drug metabolism (Hepatocyte [17]): < 1 ng/mL | inhibition at 10 µM (CYP2C9): < 5% | inhibition at 10 µM (CYP2C19): < 5% | Drug metabolism (Hepatocyte [18]): < 1 ng/mL | inhibition [19]: 68% | Drug metabolism (Hepatocyte [20]): 6 ng/mL | Drug metabolism (Hepatocyte [21]): 31 ng/mL | remaining at 0.5 h, 1 µM [22]: 100% | Drug metabolism (Hepatocyte [23]): 54 ng/mL | Drug metabolism (Hepatocyte [24]): 30 ng/mL | Drug metabolism (Hepatocyte [25]): 7 ng/mL | Drug metabolism (Hepatocyte [26]): 5 ng/mL | inhibition [27]: 67% | Drug metabolism (Hepatocyte [28]): 15 ng/mL | Drug metabolism (Hepatocyte [29]): < 1 ng/mL | Drug metabolism (Hepatocyte [30]): 20 ng/mL | inhibition at 10 µM (CYP1A2): < 5% | Drug metabolism (Hepatocyte [31]): 3 ng/mL
SMILES: C[C@@H](C(=O)NS(C)(=O)=O)c1ccc(OS(=O)(=O)C(F)(F)F)cc1 [LADARIXIN]
inhibition (INH) [11]: Not Active
